{"source": "paper PMC8979346", "about": "(RSC Advances, 2022)", "key": {"[1]": {"biological_target": "hCA II (Homo sapiens, UniProt P00918)", "test": "Carbonic anhydrase II inhibition activity", "assay_type": "biochemical"}, "[2]": {"biological_target": "hCA IX (Homo sapiens, UniProt Q16790)", "test": "biochemical", "details": "for IC50: IC50 (μM) ± SEM CA IX, ± SEM"}, "[3]": {"biological_target": "hCA XII (Homo sapiens, UniProt O43570)", "sequence (O43570 25-354)": "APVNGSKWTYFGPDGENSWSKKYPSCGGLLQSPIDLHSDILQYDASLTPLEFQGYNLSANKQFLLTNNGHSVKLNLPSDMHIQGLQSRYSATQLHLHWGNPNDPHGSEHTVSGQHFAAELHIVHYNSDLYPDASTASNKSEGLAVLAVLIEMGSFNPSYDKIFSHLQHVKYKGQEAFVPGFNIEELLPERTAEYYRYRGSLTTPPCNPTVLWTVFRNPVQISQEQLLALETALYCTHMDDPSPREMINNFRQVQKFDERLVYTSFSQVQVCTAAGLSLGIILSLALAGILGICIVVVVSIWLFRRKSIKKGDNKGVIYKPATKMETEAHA", "test": "Carbonic anhydrase XII inhibition activity", "assay_type": "biochemical"}}, "data": [{"smiles": "Cc1ccc(S(=O)(=O)Nc2ccccc2)cc1", "note": "[Compound 3a, 4-Methyl-N-phenylbenzenesulfonamide]", "values": [{"measurement": "IC50", "setting": "[1]", "result": "1300 ± 510", "unit": "nM"}, {"measurement": "IC50", "setting": "[2]; CA IX", "result": "1.2 ± 0.75", "unit": "µM"}]}, {"smiles": "Cc1ccc(S(=O)(=O)Nc2cc(C)ccc2C)cc1", "note": "[Compound 3b, N-(2,5-Dimethylphenyl)-4-methylbenzenesulfonamide]", "values": [{"measurement": "IC50", "setting": "[2]; CA IX", "result": "1.65 ± 1.3", "unit": "µM"}, {"measurement": "IC50", "setting": "[3]", "result": "1030 ± 230", "unit": "nM"}]}, {"smiles": "Cc1ccc(S(=O)(=O)Nc2c(C)cccc2C)cc1", "note": "[Compound 3c, N-(2,6-Dimethylphenyl)-4-methylbenzenesulfonamide]", "values": [{"measurement": "IC50", "setting": "[1]", "result": "1550 ± 800", "unit": "nM"}, {"measurement": "IC50", "setting": "[2]; CA IX", "result": "1.06 ± 0.63", "unit": "µM"}, {"measurement": "IC50", "setting": "[3]", "result": "700 ± 200", "unit": "nM"}]}, {"smiles": "CCN(CC)c1ccc(NS(=O)(=O)c2ccc(C)cc2)cc1", "note": "[Compound 3e, N-(4-(Diethylamino)phenyl)-4-methylbenzenesulfonamide]", "values": [{"measurement": "% inhibition CA IX", "setting": "[2]; CA IX, at 100 μM", "result": 31, "unit": "%"}, {"measurement": "inhibition at 100 µM", "setting": "[2]; read-out: % inhibition CA IX, CA IX, at 100 μM", "result": "< 31", "unit": "%"}, {"measurement": "IC50", "setting": "[3]", "result": "630 ± 140", "unit": "nM"}]}, {"smiles": "Cc1ccc(S(=O)(=O)NCc2ccccc2)cc1", "note": "[Compound 3f, N-benzyl-4-methylbenzenesulfonamide]", "values": [{"measurement": "IC50", "setting": "[1]", "result": "1070 ± 820", "unit": "nM"}, {"measurement": "IC50", "setting": "[2]; CA IX", "result": "1.98 ± 0.61", "unit": "µM"}, {"measurement": "IC50", "setting": "[3]", "result": "860 ± 280", "unit": "nM"}]}, {"smiles": "Cc1ccc(S(=O)(=O)NC(c2ccccc2)c2ccccc2)cc1", "note": "[Compound 3g, N-Benzhydryl-4-methylbenzenesulfonamide]", "values": [{"measurement": "IC50", "setting": "[1]", "result": "863 ± 540", "unit": "nM"}, {"measurement": "IC50", "setting": "[2]; CA IX", "result": "0.78 ± 0.83", "unit": "µM"}, {"measurement": "IC50", "setting": "[3]", "result": "1300 ± 780", "unit": "nM"}]}, {"smiles": "Cc1ccc(S(=O)(=O)NNc2ccccc2)cc1", "note": "[Compound 3h, 4-Methyl-N′-phenylbenzenesulfonohydrazide]", "values": [{"measurement": "IC50", "setting": "[1]", "result": "520 ± 440", "unit": "nM"}, {"measurement": "IC50", "setting": "[2]; CA IX", "result": "0.484 ± 1.4", "unit": "µM"}, {"measurement": "IC50", "setting": "[3]", "result": "1080 ± 620", "unit": "nM"}]}, {"smiles": "COc1ccc(S(=O)(=O)NNc2ccccc2)cc1", "note": "[Compound 3i, 4-Methoxy-N′-phenylbenzenesulfonohydrazide]", "values": [{"measurement": "IC50", "setting": "[1]", "result": "2760 ± 1100", "unit": "nM"}, {"measurement": "% inhibition CA XII", "setting": "[3]; CA XII, at 100 μM", "result": 27, "unit": "%"}]}, {"smiles": "Cc1ccc(S(=O)(=O)Nc2ccc(C)c(C)c2)cc1", "note": "[Compound 3j, N-(3,4-Dimethylphenyl)-4-methylbenzenesulfonamide]", "values": [{"measurement": "IC50", "setting": "[1]", "result": "2500 ± 1500", "unit": "nM"}, {"measurement": "IC50", "setting": "[2]; CA IX", "result": "0.62 ± 0.2", "unit": "µM"}, {"measurement": "IC50", "setting": "[3]", "result": "1120 ± 1000", "unit": "nM"}]}, {"smiles": "COc1ccc(S(=O)(=O)Nc2ccccc2)cc1", "note": "[Compound 3k, 4-Methoxy-N-phenylbenzenesulfonamide]", "values": [{"measurement": "IC50", "setting": "[1]", "result": "1740 ± 540", "unit": "nM"}, {"measurement": "IC50", "setting": "[3]", "result": "1140 ± 370", "unit": "nM"}]}, {"smiles": "COc1ccc(CCNS(=O)(=O)c2ccc(C)cc2)cc1OC", "note": "[Compound 3l, N-(3,4-Dimethoxyphenethyl)-4-methylbenzenesulfonamide]", "values": [{"measurement": "% inhibition CA II", "setting": "[1]; CA II, at 100 μM", "result": 32, "unit": "%"}, {"measurement": "inhibition at 100 µM", "setting": "[1]; read-out: % inhibition CA II, CA II, at 100 μM", "result": "< 50", "unit": "%"}, {"measurement": "IC50", "setting": "[2]; CA IX", "result": "0.764 ± 0.54", "unit": "µM"}, {"measurement": "IC50", "setting": "[3]", "result": "1170 ± 1000", "unit": "nM"}]}, {"smiles": "COc1ccc(S(=O)(=O)NC(c2ccccc2)c2ccccc2)cc1", "note": "[Compound 3m, N-Benzhydryl-4-methoxybenzenesulfonamide]", "values": [{"measurement": "IC50", "setting": "[1]", "result": "507 ± 400", "unit": "nM"}, {"measurement": "IC50", "setting": "[3]", "result": "1400 ± 570", "unit": "nM"}]}]}
